Data on one compound can be found in patent US8940894B2, “Aminothiazole compounds as kinase inhibitors and methods of using the same” (AB Science, priority 2007, dated 2015).

A short description of data set [1]: thermodynamic stability of the polymorph form versus temperature. The data set is classed as physicochemical. The note with it: at temperatures below 200° C.
A short description of data set [2]: behaviour of the polymorph form at relative humidity (storage). The note with it: at 80% relative humidity. The data set is classed as physicochemical.

As for `CS(=O)(=O)O.Cc1ccc(NC(=O)c2ccc(CN3CCN(C)CC3)cc2)cc1Nc1nc(-c2cccnc2)cs1` [(VI), 4-(4-Methyl-piperazin-1-ylmethyl)-N-[4-methyl-3-(4-pyridin-3-yl-thiazol-2-ylamino)-phenyl]-benzamide methanesulfonate], the “thermodynamic stability of the polymorph form” value in data set [1] is given as “thermodynamically stable”. For the same compound, the “state of the polymorph form under humidity” value in data set [2] was “remains, dry”.
